Reference: patent US20150011751A1, “NOVEL TRIAZINE DERIVATIVE” (CARNA BIOSCIENCES, INC., priority 2012, published 2015)

molecular target: Dephosphorylated BTK (Homo sapiens, UniProt Q06187); assay: Test of activity inhibition against dephosphorylated BTK (mobility shift assay)
Sequence (Q06187 whole entry): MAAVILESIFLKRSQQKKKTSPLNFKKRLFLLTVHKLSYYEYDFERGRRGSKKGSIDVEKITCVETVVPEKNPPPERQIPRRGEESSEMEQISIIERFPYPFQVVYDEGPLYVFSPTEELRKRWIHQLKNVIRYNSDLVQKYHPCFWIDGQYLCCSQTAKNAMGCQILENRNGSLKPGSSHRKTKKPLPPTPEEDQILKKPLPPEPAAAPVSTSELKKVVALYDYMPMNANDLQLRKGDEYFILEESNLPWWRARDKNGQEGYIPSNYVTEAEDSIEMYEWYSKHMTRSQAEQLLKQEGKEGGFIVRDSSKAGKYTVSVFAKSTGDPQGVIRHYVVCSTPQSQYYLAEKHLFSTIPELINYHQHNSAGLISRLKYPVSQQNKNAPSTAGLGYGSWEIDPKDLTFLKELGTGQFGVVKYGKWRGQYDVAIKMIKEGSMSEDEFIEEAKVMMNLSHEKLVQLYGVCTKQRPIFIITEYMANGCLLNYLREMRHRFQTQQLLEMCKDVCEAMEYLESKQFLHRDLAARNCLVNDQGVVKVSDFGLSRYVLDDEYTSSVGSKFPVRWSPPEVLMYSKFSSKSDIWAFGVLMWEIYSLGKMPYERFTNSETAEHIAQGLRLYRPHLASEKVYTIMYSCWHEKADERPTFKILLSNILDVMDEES

IC50 [nM]	Compound
1.5	Nc1nc(Nc2ccn([C@@H]3CCOC3)c2)nc(-c2cccc(N3CCc4cc(C5CC5)cc(F)c4C3=O)c2CO)n1 [Example 250, (R)-2-[3-(4-Amino-6-{[1-(tetrahydrofuran-3-yl)-1H-pyrrol-3-yl]ami-no}-1,3,5-triazin-2-yl)-2-(hydroyxmethyl)phenyl]-6-cyclopropyl-8-fluoro-3,4-dihydro-isoquinolin-1(2H)-one]
0.4	Cn1cc(Nc2nc(N)nc(-c3cccc(N4CCc5cc(C6CC6)cc(F)c5C4=O)c3CO)n2)cc1C(N)=O [Example 251, 4-({4-Amino-6-[3-(6-cyclo-propyl-8-fluoro-1-oxo-3,4-dihydroisoquino-lin-2(1H)-yl)-2-(hydroxy-methyl)phenyl]-1,3,5-triazin-2-yl}ami-no)-1-methyl-1H-pyr-role-2-carboxamide]
0.8	CN1CCC(n2cc(Nc3nc(N)nc(-c4cccc(N5CCc6cc(C7CC7)cc(F)c6C5=O)c4CO)n3)cn2)CC1 [Example 252, 2-[3-(4-Amino-6-{[1-(1-methylpiperidin-4-yl)-1H-pyrazol-4-yl]ami-no}-1,3,5-triazin-2-yl)-2-(hydroxymethyl)phenyl]-6-cyclopropyl-8-fluoro-3,4-dihydro-isoquinolin-1(2H)-one]
0.8	Nc1nc(Nc2cnn(CC(=O)N3CCOCC3)c2)nc(-c2cccc(N3CCc4cc(C5CC5)cc(F)c4C3=O)c2CO)n1 [Example 253, 2-[3-(4-Amino-6-{[1-(2-morpholino-2-oxoeth-yl)-1H-pyrazol-4-yl]ami-no}-1,3,5-triazin-2-yl)-2-(hydroxymethyl)phenyl]-6-cyclopropyl-8-fluoro-3,4-dihydro-isoquinolin-1(2H)-one]
1.4	Nc1nc(Nc2ccn(CC3CCOCC3)c2)nc(-c2cccc(N3CCc4cc(C5CC5)cc(F)c4C3=O)c2CO)n1 [Example 254, 2-{3-[4-Amino-6-({1-[(tetra-hydro-2H-pyran-4-yl)methyl]-1H-pyrrol-3-yl}amino)-1,3,5-tri-azin-2-yl]-2-(hydroxy-methyl)phenyl}-6-cyclo-propyl-8-fluoro-3,4-dihydroisoquinolin-1(2H)-one]
0.5	NC(=O)c1cc(Nc2nc(N)nc(-c3cccc(N4CCc5cc(C6CC6)cc(F)c5C4=O)c3CO)n2)c[nH]1 [Example 255, 4-({4-Amino-6-[3-(6-cyclo-propyl-8-fluoro-1-oxo-3,4-dihydroisoquino-lin-2(1H)-yl)-2-(hydroxy-methyl)phenyl]-1,3,5-triazin-2-yl}ami-no)-1H-pyrrole-2-carboxamide]
0.6	Nc1nc(Nc2cnn(CC3CCOCC3)c2)nc(-c2cccc(N3CCc4cc(C5CC5)cc(F)c4C3=O)c2CO)n1 [Example 257, 2-{3-[4-Amino-6-({1-[(tetra-hydro-2H-pyran-4-yl)methyl]-1H-pyrazol-4-yl}amino)-1,3,5-triazin-2-yl]-2-(hydroxy-methyl)phenyl}-6-cyclo-propyl-8-fluoro-3,4-dihydroisoquinolin-1(2H)-one]
0.9	Nc1nc(Nc2cnn(CC(=O)N3CCCC3)c2)nc(-c2cccc(N3CCc4cc(C5CC5)cc(F)c4C3=O)c2CO)n1 [Example 260, 2-{3-[4-Amino-6-({1-[2-oxo-2-(pyrrolidin-1-yl)ethyl]-1H-pyrazol-4-yl}amino)-1,3,5-tri-azin-2-yl]-2-(hydroxy-methyl)phenyl}-6-cyclo-propyl-8-fluoro-3,4-dihydroisoquinolin-1 (2H)-one]
1.5	CC1(Cn2cc(Nc3nc(N)nc(-c4cccc(N5CCc6cc(C7CC7)cc(F)c6C5=O)c4CO)n3)cn2)COC1 [Example 261, 2-{3-[4-Amino-6-({1-[(3-methyloxetan-3-yl)methyl]-1H-pyrazol-4-yl}amino)-1,3,5-triazin-2-yl]-2-(hydroxymeth-yl)phenyl}-6-cyclopro-pyl-8-fluoro-3,4-di-hydroisoquinolin-1(1H)-one]
0.8	CCCn1cc(Nc2nc(N)nc(-c3cccc(N4CCc5cc(C6CC6)cc(F)c5C4=O)c3CO)n2)cn1 [Example 262, 2-(3-{4-Amino-6-[(1-pro-pyl-1H-pyrazol-4-yl)amino]-1,3,5-triazin-2-yl}-2-(hydroxymeth-yl)phenyl)-6-cyclopro-pyl-8-fluoro-3,4-dihy-droisoquinolin-1(2H)-one]
1.3	NC(=O)Cn1cc(Nc2nc(N)nc(-c3cccc(N4CCc5cc(C6CC6)cc(F)c5C4=O)c3CO)n2)cn1 [Example 266, 2-[4-({4-Amino-6-[3-(6-cyclopropyl-8-fluoro-1-oxo-3,4-dihydroiso-quinolin-2(1H)-yl)-2-(hydroxymethyl)phenyl]-1,3,5-triazin-2-yl}amino)-1H-pyrazol-1-yl]acetamide]
1.5	Nc1nc(Nc2cc3n(c2)CCNC3=O)nc(-c2cccc(N3CCc4cc(C5CC5)cc(F)c4C3=O)c2CO)n1 [Example 267, 2-(3-{4-Amino-6-[(1-oxo-1,2,3,4-tetrahydro-pyrrolo[1,2-a]pyrazin-7-yl)amino]-1,3,5-tri-azin-2-yl}-2-(hydroxy-methyl)phenyl)-6-cyclo-propyl-8-fluoro-3,4-dihydroisoquinolin-1 (2H)-one]
1.2	CN1CCn2cc(Nc3nc(N)nc(-c4cccc(N5CCc6cc(C7CC7)cc(F)c6C5=O)c4CO)n3)cc2C1=O [Example 268, 2-(3-{4-Amino-6-[(2-meth-yl-1-oxo-1,2,3,4-tetra-hydropyrrolo[1,2-a]pyrazin-7-yl)amino]-1,3,5-triazin-2-yl}-2-(hydroxymethyl)phe-nyl)-6-cyclopropyl-8-fluoro-3,4-dihydroisoquinolin-1(2H)-one]
0.8	Cn1cc(Nc2nc(N)nc(-c3cccc(N4CCc5cc(C6CC6)cc(F)c5C4=O)c3CO)n2)cc1C#N [Example 269, 4-({4-Amino-6-[3-(6-cyclo-propyl-8-fluoro-1-oxo-3,4-dihydroisoquino-lin-2(1H)-yl)-2-(hy-droxymethyl)phenyl]-1,3,5-triazin-2-yl}ami-no)-1-methyl-1H-pyrrole-2-carbonitrile]
0.7	CC(C1CC1)n1cc(Nc2nc(N)nc(-c3cccc(N4CCc5cc(C6CC6)cc(F)c5C4=O)c3CO)n2)cn1 (stereo not drawn) [Example 270, 2-[3-(4-Amino-6-{[1-(1-cyclopropylethyl)-1H-pyrazol-4-yl]amino}-1,3,5-triazin-2-yl)-2-(hydroxymethyl)phe-nyl]-6-cyclopropyl-8-fluoro-3,4-dihydroiso-quinolin-1(2H)-one]
0.4	CCC(C)n1cc(Nc2nc(N)nc(-c3cccc(N4CCc5cc(C6CC6)cc(F)c5C4=O)c3CO)n2)cn1 (stereo not drawn) [Example 271, 2-[3-(4-Amino-6-{[1-(sec-butyl)-1H-pyrazol-4-yl]amino}-1,3,5-tri-azin-2-yl)-2-(hydroxy-methyl)phenyl]-6-cyclo-propyl-8-fluoro-3,4-dihydroisoquinolin-1 (2H)-one]
1.1	CN(C)C(=O)c1cc(Nc2nc(N)nc(-c3cccc(N4CCc5cc(C6CC6)cc(F)c5C4=O)c3CO)n2)cn1C [Example 272, 4-({4-Amino-6-[3-(6-cyclo-propyl-8-fluoro-1-oxo-3,4-dihydroisoquino-lin-2(1H)-yl)-2-(hydroxy-methyl)phenyl]-1,3,5-triazin-2-yl}ami-no)-N,N,1-trimethyl-1H-pyrrole-2-carboxamide]
2.4	CC1(Cn2cc(Nc3nc(N)nc(-c4cccc(N5CCc6cc(C7CC7)cc(F)c6C5=O)c4CO)n3)cn2)CC1 [Example 273, 2-{3-[4-Amino-6-({1-[(1-methylcyclopropyl)methyl]-1H-pyrazol-4-yl}amino)-1,3,5-triazin-2-yl]-2-(hydroxymeth-yl)phenyl}-6-cyclo-propyl-8-fluoro-3,4-di-hydroisoquinolin-1(2H)-one]
